What was measured:
Avena = experiment: Herbicidal action before emergence of the plants (pre-emergent action); assay type: in vivo; conditions: 2000 g of active substance/ha, sprayed immediately after sowing, evaluated after 3 weeks, ratings scale of nine levels (1=complete damage, 9=no action)
Stellaria [1] = experiment: Post-emergent herbicidal action (contact herbicide); assay type: in vivo; design: key: 1=complete damage; 9=no action; Ratings of 1 to 4 (in particular 1 to 3) mean a good to very good herbicidal action; conditions: 2000 g of active substance/ha, sprayed in the 4- to 6-leaf stage, evaluated after about 18 days, ratings scale 1-9
Sinapis [2] = experiment: as above; assay type: in vivo; design: key: 1=complete damage; 9=no action; Ratings of 1 to 4 (in particular 1 to 3) mean a good to very good herbicidal action; conditions: 2000 g of active substance/ha, sprayed in the 4- to 6-leaf stage, evaluated after about 18 days, ratings scale 1-9
Stellaria [3] = experiment: Herbicidal action before emergence of the plants (pre-emergent action); assay type: in vivo; design: key: 1=complete damage; 9=no action; Ratings of 1 to 4 (in particular 1 to 3) mean a good to very good herbicidal action; conditions: 2000 g of active substance/ha, sprayed immediately after sowing, evaluated after 3 weeks, ratings scale of nine levels
Setaria = experiment: as above; assay type: in vivo; design: key: 1=complete damage; 9=no action; Ratings of 1 to 4 (in particular 1 to 3) mean a good to very good herbicidal action; conditions: 2000 g of active substance/ha, sprayed immediately after sowing, evaluated after 3 weeks, ratings scale of nine levels
Sinapis [4] = experiment: as above; assay type: in vivo; design: key: 1=complete damage; 9=no action; Ratings of 1 to 4 (in particular 1 to 3) mean a good to very good herbicidal action; conditions: 2000 g of active substance/ha, sprayed immediately after sowing, evaluated after 3 weeks, ratings scale of nine levels
[5] = Stability of the isolated compound when left to stand; assay type: physicochemical; conditions: isolated product
Protocol: 4.09 g (0.02 mol) of 1,3,5-trichlorothiatriazine are stirred as a suspension in 50 ml of carbon tetrachloride at −25° C., and a solution of 0.70 g (0.022 mol) of methanol in a little carbon tetrachloride is added dropwise. During this operation, the trichlorothiatriazine dissolves apart from a little insoluble product. The mixture is then warmed to 0° C. and filtered and the filtrate is concentrated on a rotary evaporator at a maximum of 50° C. 3.25 g of the desired product, which, according to the ^13C-NMR spectrum and thin layer chromatogram (silica gel; eluting agent ethyl acetate/hexane 1/3), contains practically no further impurities, are obtained as the residue.

| SMILES | Pre-emergent action, rating, Avena (Avena) | Post-emergent action, rating, Stellaria (Stellaria [1]) | Post-emergent action, rating, Sinapis (Sinapis [2]) | Pre-emergent action, rating, Stellaria (Stellaria [3]) | Pre-emergent action, rating, Setaria (Setaria) | Pre-emergent action, rating, Sinapis (Sinapis [4]) | stability when left to stand [5] | melting point |
| --- | --- | --- | --- | --- | --- | --- | --- | --- |
| CC1(C)CCCN(S2=NC(N)=NC(Oc3cc(F)ccc3F)=N2)C1 (stereo not shown) [6.129] | 4 | 3 | 2 | 1 | 4 | 1 | – | – |
| NC1=NC(Oc2cc(F)ccc2F)=NS(N2CCCC3CCCCC32)=N1 (stereo not shown) [6.135] | 3 | 3 | 3 | 1 | 3 | 1 | – | – |
| CCN(C1CC(C)CC(C)(C)C1)S1=NC(N)=NC(Oc2c(F)c(F)c(F)c(F)c2F)=N1 (stereo not shown) [6.140] | 4 | 3 | 2 | 1 | 3 | 2 | – | – |
| NC1=NS(N2CCc3ccccc3C2)=NC(Oc2c(F)c(F)c(F)c(F)c2F)=N1 (stereo not shown) [6.145] | 4 | 3 | 3 | 1 | 2 | 1 | – | – |
| CN(Cc1ccc(Cl)nc1)S1=NC(N)=NC(Oc2c(F)c(F)c(F)c(F)c2F)=N1 (stereo not shown) [6.170] | 3 | 3 | 2 | 1 | 4 | 4 | – | – |
| NC1=NS(N2CCc3ccccc3C2)=NC(Oc2c(F)c(F)cc(F)c2F)=N1 (stereo not shown) [6.173] | 4 | 3 | 2 | 1 | 3 | 1 | – | – |
| NC1=NS(N2CC3CCCC2CC3)=NC(Oc2c(F)c(F)c(F)c(F)c2F)=N1 (stereo not shown) [6.185] | 4 | 1 | 1 | 1 | 4 | 1 | – | – |
| CN(Cc1ccccc1)S1=NC(N)=NC(Oc2c(F)c(F)c(F)c(F)c2F)=N1 (stereo not shown) [6.192] | 2 | 4 | 2 | 1 | 1 | 1 | – | – |
| CC1CC(N(C)S2=NC(N)=NC(Oc3c(F)c(F)c(F)c(F)c3F)=N2)CC(C)(C)C1 (stereo not shown) [6.194] | 7 | 4 | 2 | 2 | 5 | 2 | – | – |
| NC1=NC(Oc2c(F)c(F)c(F)c(F)c2F)=NS(N2CCc3ccccc3CC2)=N1 (stereo not shown) [6.200] | 4 | 2 | 2 | 1 | 1 | 1 | – | – |
| NC1=NC(Oc2c(F)c(F)c(F)c(F)c2F)=NS(N2CCCCCC2)=N1 (stereo not shown) [6.229] | 3 | 3 | 2 | 1 | 2 | 1 | – | – |
| NC1=NS(N2CCCCCCCC2)=NC(Oc2c(F)c(F)c(F)c(F)c2F)=N1 (stereo not shown) [6.257] | 3 | 2 | 2 | 1 | 2 | 1 | – | – |
| CC1CC2CCCCC2N1S1=NC(N)=NC(Oc2c(F)c(F)c(F)c(F)c2F)=N1 (stereo not shown) [6.282] | 4 | 5 | 1 | 1 | 2 | 1 | – | – |
| CC1CCN(S2=NC(N)=NC(Oc3c(F)c(F)c(F)c(F)c3F)=N2)C2CCCCC12 (stereo not shown) [6.285] | 5 | 3 | 2 | 1 | 2 | 1 | – | – |
| CC1CC2CCCCC2N(S2=NC(N)=NC(Oc3c(F)c(F)c(F)c(F)c3F)=N2)C1 (stereo not shown) [6.292] | 5 | 3 | 2 | 1 | 1 | 1 | – | – |
| CC1CN(S2=NC(N)=NC(Oc3c(F)c(F)c(F)c(F)c3F)=N2)C2CCCCC12 (stereo not shown) [6.295] | 3 | 3 | 1 | 1 | 1 | 1 | – | – |
| CC1CCC2C(CCN2S2=NC(N)=NC(Oc3c(F)c(F)c(F)c(F)c3F)=N2)C1 (stereo not shown) [6.298] | 3 | 4 | 1 | 1 | 2 | 1 | – | – |
| NC1=NS(N2CCCCCCCC2)=NC(Oc2c(F)c(F)cc(F)c2F)=N1 (stereo not shown) [6.302] | 3 | 3 | 2 | 1 | 2 | 1 | – | – |
| COS1=NC(Cl)=NC(Cl)=N1 (stereo not shown) [Example H3, 1-methoxy-3,5-dichlorothiatriazine] | – | – | – | – | – | – | unstable and decomposes within a few hours when left to stand | – |
| COC1=NS(OC)=NC(Oc2cc(F)ccc2F)=N1 (stereo not shown) [Example H10, 1,3-dimethoxy-5-(2′,5′-di-fluorophenoxy)thiatriazine] | – | – | – | – | – | – | – | 75 to 76 °C |
| CC(C)OS1=NC(N)=NC(Oc2cc(F)ccc2F)=N1 (stereo not shown) [Example H14, 3-amino-1-isopropoxy-5-(2′,5′-difluorophenoxy)thiatriazine] | – | – | – | – | – | – | – | 163 to 164 °C |
| CCCN(CCC)S1=NC(N)=NC(Oc2cc(F)ccc2F)=N1 (stereo not shown) [Example H17, 3-amino-1-dipropylamino-5-(2′,5′-difluorophenoxy)thiatriazine] | – | – | – | – | – | – | – | 184 to 185 °C |
